According to publication PMC5520654 (Journal of immunology (Baltimore, Md. : 1950), 2017):
Where two headings read alike, the source gives them in different places.

Key:
[1] = tested on: VLA-4 positive B16F10 melanoma cells; settings: previously reported; cited from earlier work
[2] = tested on: mice with CFA-induced inflammation; format: in vivo, mouse; settings: ICR mice, CFA in right paw, 200 μCi iv, n=3

## CB-TE1A1P-PEG4-LLP2A [^64Cu-LLP2A]
[1]
  Kd: 280 pM
[2]; PET/CT 2 h post-injection
  Inflamed paw/muscle ratio: 7.5 ± 3.7
[2]; PET/CT 6 h post-injection
  Inflamed paw/muscle ratio: 16.7 ± 1
